Experimental data reported in article PMC9945177, “Nature-Derived Epoxy Resin Monomers with Reduced Sensitizing Capacity—Isosorbide-Based Bis-Epoxides” (Chemical Research in Toxicology, 2023).

How the values were obtained:
[1] = tested on: Female CBA/Ca mice; assay: murine local lymph node assay (LLNA); assay type: in vivo
Method: Female CBA/Ca mice, 7 to 9 weeks of age, were purchased from NOVA SCB Charles River, Germany. The mice were housed in HEPA-filtered air flow cages and kept on standard laboratory diet and water ad lib. The regional ethics committee, Jordbruksverket, approved the protocol and the procedure was performed in accordance with the guidelines.
A previously published protocol[24] of the LLNA[34] was used to assess the sensitization potential of the isosorbide bis-epoxides 1–3. The purity of the assessed isosorbide bis-epoxides was >99% (GC/MS or LC/MS) before testing of sensitization potential. The isosorbide bis-epoxides were tested in five different concentrations; 1: 3.9 mM (0.10% w/v), 39 mM (1.0% w/v), 190 mM (5.0% w/v), 390 mM (10% w/v), and 770 mM (20% w/v); 2: 21 mM (1.0% w/v), 54 mM (2.5% w/v), 110 mM (5.0% w/v), 210 mM (10% w/v), and 540 mM (25% w/v); and 3: 2.3 mM (0.10% w/v), 23 mM (1.0% w/v), 110 mM (5.0% w/v), 230 mM (10% w/v), and 460 mM (20% w/v). A detailed description is given in Supporting Information.
The three isosorbide bis-epoxides were evaluated for sensitization potential in vivo with the murine LLNA (Figure 2). The stimulation index (SI) is defined as the ratio between the dpm/lymph node for the test group and the control group. Test materials that at one or more concentrations cause an SI greater than 3 are considered positive in the LLNA. The estimated concentration required to induce an SI of 3 (EC3) is used to determine the sensitizing potency of the test compound. […] Isosorbide bis-epoxide 1 gave an EC3 value of 0.17 M (4.4%), 3 gave an EC3 value of 0.36 M (16%), and no EC3 value was obtained for 2 (for full results, see the Supporting Information, Table S1).
A previously published protocol1 of the LLNA2 was used to assess the sensitization potential of the isosorbide bis-epoxides 1-3. The purity of the assessed isosorbide bis-epoxides was >98% according to LC/MS analysis. The isosorbide bis-epoxides were tested in five different concentrations; 1: 3.87 mM […]
456 mM (20% w/v). Briefly, mice in groups of three received 25 µL of test compound dissolved in the vehicle acetone/olive oil (4:1 v/v), on the dorsum of the ears for three consecutive days (day 0, 1, and 2). A sixth group of four mice was treated with vehicle only (control group). On day 5, all mice were injected intravenously via the tail vein with 250 µL of phosphate buffered saline (PBS) (pH 7.4, 137 mM NaCl, 2.7 mM KCl, and 10 mM phosphate buffer) containing 20 µCi [methyl-3H]thymidine. Five hours later the mice were sacrificed, the draining lymph nodes were excised and pooled for each group, followed by preparation of single-cell suspensions of lymph nodes in PBS by using cell strainers (Falcon; BD Labware, Franklin Lakes, NJ, USA; pore size, 70 µm). Cell suspensions were washed twice with PBS, precipitated with trichloroacetic acid (TCA) (5%), and stored at 4 °C overnight. The samples were then centrifuged, resuspended in TCA (5%, 1 mL), and transferred to scintillation cocktail (10 mL) (EcoLume INC Radiochemicals, Solon, OH, USA). The incorporation of [methyl-3H]thymidine into DNA was measured by b-scintillation counting with a Beckman LS 6000TA instrument. Results are expressed as the mean dpm/lymph node for each experimental group and as stimulation index (SI). The SI is defined as the ratio between dpm/lymph node for the test group and the control group. Test materials that at one or more concentrations cause an SI greater than 3 are considered positive in the LLNA. EC3 values (the estimated concentration required to induce an SI of 3) were calculated by linear interpolation.
Results from the Local Lymph Node Assay
Table S1: Full results from the LLNA of bis-epoxides 1-3a
Test Test [3H]thymidine SI EC value

[2] = tested on: AcPHCKRM; assay: peptide depletion with AcPHCKRM; details: peptide 1 mM, test compound 10 mM, DMSO/phosphate buffer pH 7.4 (1:1), room temperature
Method: Liquid chromatography-mass spectroscopy (LC-MS) analyses of peptide depletion experiments were performed using electrospray ionization (ESI) on a Hewlett-Packard 1100 HPLC/MS (Agilent Technologies, Waldbronn, Germany). The system included a vacuum degasser, a binary pump, an autoinjector, a column thermostat, a diode array detector, and a single quadrupole mass spectrometer. The high-performance liquid chromatography (HPLC) system was equipped with a HyPURITY C18 column (150 × 3 mm i.d., particle size 3 μm, Thermo Hypersil-Keystone, Thermo Electron Corp., Bellafonte, PA, USA). The mobile phase consisted of 0.005% pentafluoropropanoic acid, 0.1% acetic acid, and 5% acetonitrile in water (solvent A) and 0.005% pentafluoropropanoic acid, 0.1% acetic acid, and 50% water in acetonitrile (solvent B). […] The gradient conditions used were as follows: 0-8% B (0-3 min), 8-10% B (3-15 min), 10-100% B (15-18 min), 100% B (18-30 min), 100-0% B (30-30.1 min), 0% B (30.1-40 min). The ESI interface was used in positive ionization mode with the following spray chamber settings: nebulizer pressure, 35 psi; capillary voltage, 3000 V; drying gas temperature, 350 °C; and drying gas flow rate, 12 L/min. The fragmentor voltage was set to 120 V. The mass spectrometer was used in scan mode detecting molecular ions with m/z values ranging from 50 to 1800. All solvents were degassed with argon prior to use.

[3] = estimated concentration required to induce an SI of 3, linear interpolation

Compound	LLNA outcome ([1]; in concentrations up to 25% w/v (0.54 M))	SI ([1]; test concentration 1.0% w/v)	[3H]thymidine incorporation (dpm/lymph node) ([1]; test concentration 1.0% w/v)	SI ([1]; test concentration 2.5% w/v)	[3H]thymidine incorporation (dpm/lymph node) ([1]; test concentration 2.5% w/v)	SI ([1]; test concentration 5.0% w/v)	[3H]thymidine incorporation (dpm/lymph node) ([1]; test concentration 5.0% w/v)	SI ([1]; test concentration 10% w/v)	[3H]thymidine incorporation (dpm/lymph node) ([1]; test concentration 10% w/v)	SI ([1]; test concentration 25% w/v)	[3H]thymidine incorporation (dpm/lymph node) ([1]; test concentration 25% w/v)	reactivity with the model peptide AcPHCKRM [2]	EC3 value (%) ([1]; as printed in main text)	sensitizing potency classification ([1]; classified by EC3)	EC3 value [1, 3] [M]	EC3 value (% w/v) [1, 3] [% w/v]	SI ([1]; test concentration 0.10% w/v)	[3H]thymidine incorporation (dpm/lymph node) ([1]; test concentration 0.10% w/v)	SI ([1]; test concentration 20% w/v)	[3H]thymidine incorporation (dpm/lymph node) ([1]; test concentration 20% w/v)
O=C(OC1COC2C(OC(=O)c3ccc(CC4CO4)cc3)COC12)c1ccc(CC2CO2)cc1 [Compound 2, (3R,3aR,6S,6aR)-3,6-O-Bis[4-(3,4-epoxypropyl)benzoyl]-1,4:3,6-dianhydro-D-glucitol]	nonsensitizing	1.06	455	1.43	614	1.10	473	1.07	459	2.27	972	least reactive	–	–	–	–	–	–	–	–
c1cc(CC2CO2)ccc1CO[C@H]1CO[C@H]2[C@@H]1OC[C@H]2OCc1ccc(CC2CO2)cc1 (stereo partly drawn) [Compound 3, (3R,3aR,6S,6aR)-3,6-O-Bis[4-(3,4-epoxypropyl)benzyl]-1,4:3,6-dianhydro-D-glucitol]	–	1.56	706	–	–	2.55	1158	2.85	1292	–	–	slightly less reactive	16	moderate (EC3 > 2%, moderate)	0.36	15.8	1.06	479	3.11	1412
